Results published in a compilation of properties of binary mixtures (doi:10.1007/s10953-016-0518-2).

Assay: xn = mol fraction of the nth substance listed
Settings: 101 kPa

OCCO + CC[n+]1ccn(C)c1.F[B-](F)(F)F
x2 = 0
Settings	viscosity [mPa·s]
303.15 K	13.8
313.15 K	9.62
323.15 K	6.92

CC[n+]1ccn(C)c1.F[B-](F)(F)F + OCCO
viscosity [mPa·s]
Settings	x1 = 0.0993	x1 = 0.2001	x1 = 0.3023	x1 = 0.4011	x1 = 0.5003	x1 = 0.598	x1 = 0.7003	x1 = 0.7997	x1 = 0.8997	x1 = 1
303.15 K	10.5	9.63	9.5	–	10.6	11.9	14	16.9	21.4	28
313.15 K	7.54	6.96	6.97	–	7.91	8.98	10.5	12.7	15.9	20.4
323.15 K	5.57	5.22	5.3	5.63	6.21	7.05	8.29	9.9	12.3	15.3
333.15 K	–	–	4.2	4.51	5.02	5.7	6.7	8.07	9.7	12.1
